Test results: patent publication US20180235917A1, “COMPOSITIONS, METHODS AND KITS FOR TREATMENT OF DIABETES AND/OR […]” (NuSirt Sciences, Inc., priority 2014, published 2018)
Marks after values point to notes of the source that are not given here.

Columns and labels:
[1] = system: adipocytes (3T3-L1) and myotubes (C2C12); test: Fatty acid oxidation and dose-response screening, cell type not stated; assay type: cell-based, mouse; details: leucine 0.5 mM, HMB 5 μM, resveratrol 200 nM, myo-inositol 100 nM; cell type not stated
[2] = molecular target: T1, Sirt1 (Mus musculus, UniProt Q923E4); test: Sirt1 activity (SIRT1 Fluorimetric Drug Discovery Kit) in treated cells; assay type: cell-based; details: leucine 0.5 mM, HMB 5 μM, resveratrol 200 nM, alone or combined; cell type not stated
T1 construct: endogenous in cells; host or cells: differentiated 3T3-L1 adipocytes and C2C12 myotubes (lysates)
T1 sequence (Q923E4 1-737): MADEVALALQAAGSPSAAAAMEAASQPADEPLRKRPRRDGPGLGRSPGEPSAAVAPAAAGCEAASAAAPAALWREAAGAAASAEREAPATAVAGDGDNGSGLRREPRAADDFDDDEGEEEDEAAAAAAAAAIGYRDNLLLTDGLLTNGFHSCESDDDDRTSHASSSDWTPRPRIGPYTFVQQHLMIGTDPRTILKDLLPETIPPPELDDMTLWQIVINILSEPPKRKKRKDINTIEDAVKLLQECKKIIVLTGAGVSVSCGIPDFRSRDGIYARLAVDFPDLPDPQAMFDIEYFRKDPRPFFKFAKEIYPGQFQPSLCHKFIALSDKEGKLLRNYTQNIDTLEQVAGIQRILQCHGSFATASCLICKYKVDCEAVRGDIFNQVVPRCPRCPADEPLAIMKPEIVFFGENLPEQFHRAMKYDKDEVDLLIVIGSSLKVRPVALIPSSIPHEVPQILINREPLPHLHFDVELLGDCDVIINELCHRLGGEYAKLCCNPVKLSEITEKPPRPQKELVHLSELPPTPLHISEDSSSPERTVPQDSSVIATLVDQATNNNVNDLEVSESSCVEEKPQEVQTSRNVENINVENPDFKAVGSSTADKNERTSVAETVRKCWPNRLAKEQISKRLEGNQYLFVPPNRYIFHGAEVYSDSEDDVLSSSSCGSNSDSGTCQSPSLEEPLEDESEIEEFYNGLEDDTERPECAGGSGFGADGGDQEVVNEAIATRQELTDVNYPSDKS
Description: SIRT1 activity was measured by using the SIRT1 Fluorimetric Drug Discovery Kit (BML-AK555, ENZO Life Sciences International, Inc. PA, USA). The assay measures SIRT1 activity by the degree of deacetylation of a standardized substrate containing an acetylated lysine side chain. The substrate utilized is a peptide containing amino acids 379-382 of human p53 (Arg-His-Lys-Lys[Ac]), an established target of SIRT1 activity; SIRT1 activity is directly proportional to the degree of deacetylation of Lys-382. Samples were incubated with peptide substrate (25 μM), and NAD^+ (500 μM) in a phosphate-buffered saline solution at 37° C. on a horizontal shaker for 45 minutes. […] Following 10 minutes incubation at 37° C., fluorescence was read in a plate-reading fluorometer (Synergy HT, BioTek Instruments, Winooski, Vt.) at an excitation wavelength of 360 nm and an emission wavelength of 450 nm. […]
Sirt1 activity was measured by using the Sirt1 Fluorimetric Drug Discovery Kit (BML-AK555, ENZO Life Sciences Inc., Farmingdale, N.Y., USA). […] Sirt1 activity was assessed by the degree of deacetylation of a standardized substrate containing an acetylated lysine side chain. […] Following 10 minutes incubation at 37° C., fluorescence was read in a plate-reading fluorimeter with excitation and emission wavelengths of 360 nm and 450 nm, respectively. […] Sirt1 activity was measured in a modified assay using 5 μl of cell lysate. […]

[3] = system: diet-induced obese mice; test: Diet-induced obese mice fed resveratrol, HMB, leucine: weight, adiposity, fat oxidation, insulin sensitivity (Example 1); assay type: in vivo, c57/BL6 mice; details: for Weight: 6 weeks on high-fat diet; for Glucose / Insulin: plasma
Description: Six week old male c57/BL6 mice were fed a high-fat diet with fat increased to 45% of energy (Research Diets D12451) for 6 weeks to induce obesity.
The animals were housed in polypropylene cages at a room temperature of 22±2° C. and regime of 12 h light/dark cycle. The animals had free access to water and their experimental food throughout the experiment. At the of the treatment period (6 weeks) all animals were humanely euthanized, and blood and tissues collected for further experiments.
at the end of the obesity induction period (day 0 of treatment group) and at 2 weeks and 6 weeks of treatment, oxygen consumption and substrate utilization was measured via metabolic chambers using the Comprehensive Lab Animal Monitoring Systems (CLAMS, Columbus Instruments, Columbus, Ohio) in subgroups of each treatment group. Each animal was placed in individual cages without bedding that allow automated, non-invasive data collection. Each cage is an indirect open circuit calorimeter that provides measurement of oxygen consumption, carbon dioxide production, and concurrent measurement of food intake. All mice were acclimatized to the chambers for 24 hours prior to the experiment and maintained under the regular 12:12 light:dark cycle with free access to water and food. All experiments were started in the morning and data were collected for 24 hours. Each chamber was passed with 0.61 of air/min and was sampled for 2 min at 32-minute intervals. Exhaust O2 and CO2 content from each chamber was compared with ambient O2 and CO2 content. Food consumption was measured by electronic scales.
at the end of the treatment period (6 weeks of treatment) subgroups of each treatment diet group (5 animals/group, 35 animals total) were used to measure whole body glucose and palmitate uptake via PET/CT Imaging. To visualize these compounds using microPET imaging, the glucose or palmitate was labeled with fluorine-18 (108 mins half-life) or carbon-11 (20 mins half-life), respectively. Each mouse was fasted for 4 hours, then anesthetized using 1-3% isoflurane delivered by nose cone or in a mouse-sized induction chamber purpose-built for small animal imaging protocols. While under anesthesia the mice were injected iv with <2 mCi of each tracer, then be left for a period of time (minutes to up ˜1 hour) to allow the uptake of the tracer. During the scan, mice were kept warm using a thermostatically controlled heated bed and were treated with ophthalmic ointment prior to scanning Following the live scan the mice were returned to their cage and revived. Mice were monitored constantly during this time. Following live data acquisition the mice were sacrificed by isoflurane overdose and organs harvested for further experiments.

`Oc1ccc(/C=C/c2cc(O)cc(O)c2)cc1` [Resveratrol, 3,5,4′-Trihydroxy-trans-stilbene] was tested, and the “increase in fatty acid oxidation” value [1] was “no effect”, the “stimulation of Sirt1 activity” value [2] was “no effect” and the Weight ([3]; High Resveratrol 225 mg/kg diet, or Low Resv 12.5 mg/kg + High HMB 10 g CaHMB/kg diet) was 38.7 ± 1.2^a g. The Weight ([3]; low doses: resveratrol 12.5 mg/kg diet, CaHMB 2 g/kg diet, leucine 2.42% of diet) was 40.8 ± 2.5^a g, the “Fat oxidation (PET palmitate uptake; Muscle SUV)” value ([3]; high doses as E2) was 2.29 ± 0.11^b SUV and the HOMAIR ([3]; high doses as E2) was 0.59 ± 0.26^b. The “Heat Production” value ([3]; high doses as E2) was 0.552 ± 0.015^b, the “Muscle Glucose Uptake (^18F-deoxyglucose SUV)” value ([3]; high doses as E2) was 3.87 ± 0.32^a SUV and the “Visceral Adipose Volume” value ([3]; high doses as E2) was 6031 ± 323^a mm^3. For the same compound, the Weight gain ([3]; high doses as E2) was 22.3 ± 2.4^a g, the “Fat oxidation (PET palmitate uptake; Muscle SUV)” value ([3]; low doses as E1) was 1.51 ± 0.44^a SUV and the HOMAIR ([3]; low doses as E1) was 2.41 ± 0.66^a. For the same compound, the “Heat Production” value ([3]; low doses as E1) was 0.517 ± 0.014^a, the “Muscle Glucose Uptake (^18F-deoxyglucose SUV)” value ([3]; low doses as E1) was 3.63 ± 1.29^a SUV and the “Visceral Adipose Volume” value ([3]; low doses as E1) was 6551 ± 575^a mm^3. The Weight gain ([3]; low doses as E1) was 20.9 ± 1.5^a g, the Glucose ([3]; high doses as E2) was 5.14 ± 0.75^a mM and the Insulin ([3]; high doses as E2) was 10.1 ± 2.7^a μU/mL. For the same compound, the Glucose ([3]; low doses as E1) was 5.14 ± 0.85^a mM and the Insulin ([3]; low doses as E1) was 10.4 ± 1.6^a μU/mL.
